Results: paper PMC6934184, “Selective DNA-PKcs inhibition extends the therapeutic index of localized radiotherapy and chemotherapy” (The Journal of Clinical Investigation, 2019)

Target: T1, ALK (Homo sapiens, UniProt Q9UM73)
T1 construct: purchased Thermo Fisher Scientific (Life Technologies) SelectScreen
Experiment: SelectScreen Z'LYTE
Assay type: biochemical
Procedure, shortened: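 NU5455 was profiled across the SelectScreen Broad panel of kinase activity and binding assays. Z'LYTE reactions such as CSF1R ran at apparent Km ATP, while the Adapta CAMK1 assay used ATP listed as 10. Values are given as percent.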

T1 sequence (Q9UM73 19-1620): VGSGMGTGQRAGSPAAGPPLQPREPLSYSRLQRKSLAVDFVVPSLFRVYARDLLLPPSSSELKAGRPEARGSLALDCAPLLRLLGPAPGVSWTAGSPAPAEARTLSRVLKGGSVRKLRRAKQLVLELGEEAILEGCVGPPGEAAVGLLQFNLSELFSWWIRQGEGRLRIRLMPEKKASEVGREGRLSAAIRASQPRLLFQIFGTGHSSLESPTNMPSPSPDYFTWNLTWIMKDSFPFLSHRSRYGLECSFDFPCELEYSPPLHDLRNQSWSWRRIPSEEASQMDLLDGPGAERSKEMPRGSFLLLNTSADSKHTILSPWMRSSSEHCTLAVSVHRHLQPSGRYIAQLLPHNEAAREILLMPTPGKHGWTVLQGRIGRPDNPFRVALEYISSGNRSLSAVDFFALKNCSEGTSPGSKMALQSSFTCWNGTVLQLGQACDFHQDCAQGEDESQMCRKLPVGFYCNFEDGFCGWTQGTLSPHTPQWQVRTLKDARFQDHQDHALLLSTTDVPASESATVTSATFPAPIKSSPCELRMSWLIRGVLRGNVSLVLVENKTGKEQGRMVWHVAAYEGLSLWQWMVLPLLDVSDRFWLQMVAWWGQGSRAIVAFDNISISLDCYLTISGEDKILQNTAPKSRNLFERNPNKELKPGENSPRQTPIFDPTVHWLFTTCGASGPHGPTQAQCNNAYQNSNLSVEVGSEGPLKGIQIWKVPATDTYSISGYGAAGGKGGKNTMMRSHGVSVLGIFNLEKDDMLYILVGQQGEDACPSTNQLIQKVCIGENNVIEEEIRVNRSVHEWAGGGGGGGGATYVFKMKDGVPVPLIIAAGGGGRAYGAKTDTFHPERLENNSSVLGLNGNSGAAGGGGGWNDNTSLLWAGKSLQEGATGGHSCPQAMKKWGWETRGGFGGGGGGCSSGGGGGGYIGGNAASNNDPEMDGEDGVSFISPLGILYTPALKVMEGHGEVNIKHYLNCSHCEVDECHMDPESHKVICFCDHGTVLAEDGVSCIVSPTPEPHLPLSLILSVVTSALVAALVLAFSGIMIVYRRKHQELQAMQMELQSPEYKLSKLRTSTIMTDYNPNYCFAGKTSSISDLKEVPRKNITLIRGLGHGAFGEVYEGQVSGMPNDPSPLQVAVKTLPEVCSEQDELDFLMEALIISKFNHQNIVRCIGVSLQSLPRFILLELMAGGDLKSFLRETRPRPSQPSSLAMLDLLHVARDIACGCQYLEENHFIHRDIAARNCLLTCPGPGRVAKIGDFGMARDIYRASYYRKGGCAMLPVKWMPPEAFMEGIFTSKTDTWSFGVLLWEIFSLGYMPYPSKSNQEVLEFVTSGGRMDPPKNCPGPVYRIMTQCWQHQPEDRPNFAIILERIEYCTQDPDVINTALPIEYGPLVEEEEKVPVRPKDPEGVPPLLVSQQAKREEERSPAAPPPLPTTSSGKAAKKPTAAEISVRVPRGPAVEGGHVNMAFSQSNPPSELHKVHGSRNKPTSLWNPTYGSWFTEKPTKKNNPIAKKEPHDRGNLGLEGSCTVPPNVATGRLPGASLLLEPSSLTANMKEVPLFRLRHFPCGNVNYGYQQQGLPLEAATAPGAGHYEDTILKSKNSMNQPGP

`CN(C(=O)CN1CCOCC1)c1ccc2sc3c(-c4cccc5c(=O)cc(N6CC7CCC(C6)O7)oc45)cccc3c2c1` [NU5455] was tested, and the inhibition at 1 µM was 17.3%.
